Test results as given in patent US9434994B2, “Methods for prediction of clinical outcome to epidermal growth factor receptor inhibitors by non-small cell lung cancer patients” (The Regents of the University of Colorado, a body corporate, priority 2004, dated 2016).
Like-named read-outs stand apart in the source and are kept apart here.

Test system: NSCLC patients
[1] = EGFR FISH+/EGFR mutation+ (17 patients)
[2] = FISH +, IHC +, EGFR Mut +, n 12
[3] = FISH +, IHC +, EGFR Mut −, n 20

Excerpt: In order to make a more substantial statistical analysis and power, the inventors have analyzed the combined data set, which includes altogether 204 patients with NSCLC.
The multivariable analysis is based on an initial univariable analysis including clinical- and biological markers by using backward stepwise regression methods. All univariately significant covariates were included in the stepwise selection.

COc1cc2ncnc(Nc3ccc(F)c(Cl)c3)c2cc1OCCCN1CCOCC1 [gefitinib]
HR, survival, multivariable (Current/Former smokers): 2.68
DC (disease control) (EGFR FISH+): 65%
MS (95% CI) (EGFR FISH+): 18 (14-21) months
OR (overall response) (EGFR FISH+): 33%
TTP, median (95% CI) (EGFR FISH+): 9 (5-10) months
1-yr survival (EGFR FISH+ or IHC+): 44% (33-55)
DCR (EGFR FISH+ or IHC+): 43%
MS (EGFR FISH+ or IHC+): 11 (7-15) mo
RSP (EGFR FISH+ or IHC+): 10%
TTP (EGFR FISH+ or IHC+): 3 (2-5) mo
Disease Control Rate [1]: 69%
response rate [1]: 69%
time to progression [1]: 16 months
Median Survival (EGFR FISH+/EGFR mutation+, not yet achieved): exceeding 20 months
DCR (EGFR FISH+/IHC+): 76%
MS (EGFR FISH+/IHC+): 21 (15-21) mo
RSP (EGFR FISH+/IHC+): 41%
TTP (EGFR FISH+/IHC+): 9 (6-16) mo
DC (disease control) (EGFR FISH-): 30%
MS (95% CI) (EGFR FISH-): 8 (6-11) months
OR (overall response) (EGFR FISH-): 6%
TTP, median (95% CI) (EGFR FISH-): 3 (2-3) months
Disease Control Rate (EGFR FISH-/EGFR mutation-): 29%
response rate (EGFR FISH-/EGFR mutation-): 3%
time to progression (EGFR FISH-/EGFR mutation-): 3 month
DCR (EGFR FISH-/IHC-): 17%
MS (EGFR FISH-/IHC-): 6 (4-8) mo
RSP (EGFR FISH-/IHC-): 2%
TTP (EGFR FISH-/IHC-): 2 (2-3) mo
DC (disease control) (EGFR IHC+): 56%
MS (95% CI) (EGFR IHC+): 14 (11-21) months
OR (overall response) (EGFR IHC+): 22%
TTP, median (95% CI) (EGFR IHC+): 5 (3-7) months
DC (disease control) (EGFR IHC-): 27%
HR, survival, multivariable (EGFR IHC-): 1.70
MS (95% CI) (EGFR IHC-): 7 (5-10) months
OR (overall response) (EGFR IHC-): 5%
TTP, median (95% CI) (EGFR IHC-): 3 (2-3) months
DC (disease control) (EGFR Mutation+): 52%
MS (95% CI) (EGFR Mutation+): 13 (6-21)
OR (overall response) (EGFR Mutation+): 39%
TTP, median (95% CI) (EGFR Mutation+): 3 (2-11)
DC (disease control) (EGFR Mutation-): 37%
MS (95% CI) (EGFR Mutation-): 11 (7-13)
OR (overall response) (EGFR Mutation-): 7%
TTP, median (95% CI) (EGFR Mutation-): 3 (2-4)
1-yr survival (EGFR mutation+ or IHC+): 50% (39-61)
DCR (EGFR mutation+ or IHC+): 47%
MS (EGFR mutation+ or IHC+): 12 (8-15) mo
RSP (EGFR mutation+ or IHC+): 12%
TTP (EGFR mutation+ or IHC+): 3 (2-5) mo
1-yr survival (EGFR mutation+/IHC+): 63% (45-81)
MS (EGFR mutation+/IHC+): 21 (10-21) mo
RSP (EGFR mutation+/IHC+): 50%
TTP (EGFR mutation+/IHC+): 10 (2-16) mo
MS (EGFR mutation-/IHC-): 7 (5-12) mo
RSP (EGFR mutation-/IHC-): 2%
TTP (EGFR mutation-/IHC-): 2 (2-3) mo
1-yr surv [2]: 100%
DCR [2]: 78%
OR (response rate) [2]: 78%
TTP [2]: 20 (11-20) months
1-yr surv [3]: 64% (42-86)
OR (response rate) [3]: 22%
OS (median survival) [3]: 15 (6-16) months
TTP [3]: 5 (3-12) months
1-yr surv (FISH +, IHC +, P-AKT +, N 34): 84% (70-97)
DCR (FISH +, IHC +, P-AKT +, N 34): 80%
OR (response rate) (FISH +, IHC +, P-AKT +, N 34): 43%
TTP (FISH +, IHC +, P-AKT +, N 34): 12 (6-19) months
1-yr surv (FISH +, IHC +, P-AKT −, N 4): 75% (33-100)
OR (response rate) (FISH +, IHC +, P-AKT −, N 4): 0%
OS (median survival) (FISH +, IHC +, P-AKT −, N 4): 18 (5-18) months
TTP (FISH +, IHC +, P-AKT −, N 4): 9 (2-9) months
1-yr surv (FISH +, IHC −, EGFR Mut +, n 5): 60% (17-100)
DCR (FISH +, IHC −, EGFR Mut +, n 5): 50%
OR (response rate) (FISH +, IHC −, EGFR Mut +, n 5): 50%
TTP (FISH +, IHC −, EGFR Mut +, n 5): 3 (2-9) months
1-yr surv (FISH +, IHC −, EGFR Mut −, n 8): 38% (7-66)
DCR (FISH +, IHC −, EGFR Mut −, n 8): 39%
OR (response rate) (FISH +, IHC −, EGFR Mut −, n 8): 0%
OS (median survival) (FISH +, IHC −, EGFR Mut −, n 8): 9 (1-9) months
TTP (FISH +, IHC −, EGFR Mut −, n 8): 2 (1-6) months
1-yr surv (FISH +, IHC −, P-AKT +, N 15): 53% (28-79)
DCR (FISH +, IHC −, P-AKT +, N 15): 46%
OR (response rate) (FISH +, IHC −, P-AKT +, N 15): 15%
OS (median survival) (FISH +, IHC −, P-AKT +, N 15): 14 (3-19) months
TTP (FISH +, IHC −, P-AKT +, N 15): 3 (2-6) months
1-yr surv (FISH +, IHC −, P-AKT −, N 2): 0% (0-69)
DCR (FISH +, IHC −, P-AKT −, N 2): 0%
OR (response rate) (FISH +, IHC −, P-AKT −, N 2): 0%
OS (median survival) (FISH +, IHC −, P-AKT −, N 2): 9 (NA) months
TTP (FISH +, IHC −, P-AKT −, N 2): 2 (NA) months
1-yr surv (FISH −, IHC +, EGFR Mut +, n 12): 42% (1470)
